Results from PMC9469097 (Frontiers in Pharmacology, 2022).
Read-outs that look alike come from different tables or passages of the source.

Legend:
[1] = Pharmacokinetic interaction between Styrax and midazolam (i.v. and i.g.) in rats; conditions: for AUC(0-inf) / Cmax / half-life: male, Sprague-Dawley, rat, plasma; for half-life: t1/2, rats
CYP3A = CYP3A (Homo sapiens, UniProt P08684); assay: CYP3A-catalyzed midazolam 1′-hydroxylation in HLMs; format: biochemical; conditions: for IC50 at 30 min: human
Protocol: Following incubation for 30 min at 37 °C, and 200 μl ice-cold acetonitrile containing internal standard (IS, 90 ng/ml) was subsequently added to quench the oxidative reaction. The mixture was then centrifuged at 20,000 ×g, 4 °C for 20 min, and the supernatant was quantified by LC-MS/MS analysis as described in Supplementary Table S2.

[2] = Tissue distribution of PTAs of Styrax in rats; conditions: for exposure in rat plasma and rat liver: after single oral dose of Styrax (100 mg/kg)
Protocol: Nine Male Sprague-Dawley rats (250–300 g) were purchased from Shanghai Sippe-Bk Lab Animal Co., Ltd. (Shanghai, China) and were fed in Experimental Animal Center of SHUTCM. […] The rats were fasted overnight before dosing but were free to drink water. Nine rats were randomly divided into three groups (1, 2, and 4 h). […] Blood samples were collected from the abdominal aorta, and the tissues (including the liver, duodenum, jejunum, ileum and colon) were removed rapidly and placed on ice. After then, the blood samples were centrifuged at 8,000 rpm, 4 °C for 10 min, and the supernatant was stored at −80 °C until analysis.
Firstly, each tissue (such as liver, duodenum, jejunum, ileum, colon) was accurately weighed after sucking the water on tissue surface. Each tissue was put into an EP tube and then cut (3-5 times) by a scissor. After then, PBS (pH 7.4) and magnetic beads were added into EP tube, grind the tissue by a tissue grinder. The tissue grinding fluid was centrifuged at 9,000 g, 4 °C for 20 min. 50 μl tissue supernatant was diluted by adding 250 μl LC grade acetonitrile. The protein was precipitated by centrifuging at 20,000 ×g, 4 °C for 30 min and the supernatant was collected to determine the protein concentration by a BCA Protein Quantification Kit. After then, the concentrations of seven PTAs were determined by using UHPLC-Q-Orbitrap HRMS analysis.

[3] = Stability tests for target pentacyclic triterpenoid acids
CYP3A4 = CYP3A4 (Homo sapiens, UniProt P08684); assay: CYP3A4-catalyzed NEN 4-hydroxylation in HLMs (fluorescence-based assay)
Protocol: In brief, PBS (pH 7.4, 100 mM), herbal medicines (100 μg/ml, final concentration)/PTAs/solvent, NEN, G-6-P, G-6-PDH, MgCl2, and HLMs were added to the 96-well plate in turn, then the samples were vortexed and pre-incubated for 3 min at 37 °C. The oxidative reactions were initiated by adding β-NADP^+ to yield a final volume of 200 μl, then the formation rates of NEHN (hydroxylated metabolite of NEN) were continuously monitored for 30 min at 37 °C using a 96-well fluorescence microplate reader (SpectraMax® iD3, Molecular Devices, Austria). The percentage of organic solvent in all incubation is not over 1%.

[4] = iv, 5 mg/kg, rats, midazolam i.v. 5 mg/kg, pretreated with Soybean oil
[5] = iv, 5 mg/kg, rats, midazolam i.v. 5 mg/kg, pretreated with Styrax i.g. 100 mg/kg
[6] = po, 20 mg/kg, rats, midazolam i.g. 20 mg/kg, pretreated with Soybean oil
[7] = po, 20 mg/kg, rats, midazolam i.g. 20 mg/kg, pretreated with Styrax i.g. 100 mg/kg
[8] = rats, midazolam i.g. 20 mg/kg, Styrax + midazolam vs Soybean oil + midazolam (fold)
[9] = rats, midazolam i.v. 5 mg/kg, Styrax + midazolam vs Soybean oil + midazolam

Sequence of CYP3A4 (P08684 whole entry): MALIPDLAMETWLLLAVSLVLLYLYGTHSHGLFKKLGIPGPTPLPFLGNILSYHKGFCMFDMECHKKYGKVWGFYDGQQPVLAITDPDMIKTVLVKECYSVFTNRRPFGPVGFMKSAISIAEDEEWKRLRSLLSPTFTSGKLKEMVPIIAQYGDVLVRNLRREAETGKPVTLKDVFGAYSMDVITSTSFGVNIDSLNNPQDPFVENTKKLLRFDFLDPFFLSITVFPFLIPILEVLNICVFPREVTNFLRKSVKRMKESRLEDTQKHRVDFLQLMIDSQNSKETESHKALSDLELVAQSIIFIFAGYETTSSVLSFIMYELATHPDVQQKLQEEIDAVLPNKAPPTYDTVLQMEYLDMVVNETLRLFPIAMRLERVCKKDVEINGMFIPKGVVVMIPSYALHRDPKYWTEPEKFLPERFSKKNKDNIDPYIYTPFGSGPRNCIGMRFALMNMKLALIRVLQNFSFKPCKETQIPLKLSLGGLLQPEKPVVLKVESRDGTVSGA
Sequence of CYP3A (P08684 2-503): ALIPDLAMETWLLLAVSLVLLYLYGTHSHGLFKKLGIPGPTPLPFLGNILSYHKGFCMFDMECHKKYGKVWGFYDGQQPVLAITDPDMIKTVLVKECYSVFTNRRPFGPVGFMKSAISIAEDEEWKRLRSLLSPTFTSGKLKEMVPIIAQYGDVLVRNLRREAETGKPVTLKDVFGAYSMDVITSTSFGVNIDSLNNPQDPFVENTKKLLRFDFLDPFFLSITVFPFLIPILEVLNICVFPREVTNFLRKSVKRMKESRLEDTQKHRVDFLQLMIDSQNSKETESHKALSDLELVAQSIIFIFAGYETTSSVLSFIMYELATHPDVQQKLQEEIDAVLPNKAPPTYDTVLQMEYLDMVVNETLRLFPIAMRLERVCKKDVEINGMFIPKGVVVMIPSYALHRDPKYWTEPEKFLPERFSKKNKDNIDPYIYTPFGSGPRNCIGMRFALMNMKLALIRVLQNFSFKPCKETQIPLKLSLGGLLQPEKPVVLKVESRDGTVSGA

## Cc1ncc2n1-c1ccc(Cl)cc1C(c1ccccc1F)=NC2 [midazolam]
[1]; [4]
  AUC(0-inf): 1320 ± 130 ng·h/mL
  Cmax: 3260 ± 708 ng/mL
[1]; [5]
  AUC(0-inf): 1200 ± 114 ng·h/mL
  Cmax: 3370 ± 570 ng/mL
[1]; iv, 5 mg/kg, midazolam i.v. 5 mg/kg, pretreated with Styrax i.g. 100 mg/kg
  half-life: 0.52 ± 0.14 h
[1]; [6]
  AUC(0-inf): 211 ± 87.2 ng·h/mL
  Cmax: 129 ± 111 ng/mL
[1]; [7]
  AUC(0-inf): 431 ± 217 ng·h/mL
  Cmax: 294 ± 277 ng/mL
[1]; po, 20 mg/kg, midazolam i.g. 20 mg/kg, pretreated with Soybean oil
  half-life: 2.14 ± 0.28 h
[1]; po, 20 mg/kg, midazolam i.g. 20 mg/kg, pretreated with Styrax i.g. 100 mg/kg
  half-life: 4.52 ± 3.96 h
[1]; rats, midazolam i.g. 20 mg/kg, Styrax + midazolam vs Soybean oil + midazolam
  Tmax Ratio: 1.00
[1]; [8]
  AUC(0-inf) Ratio: 2.04
  Cmax Ratio: 2.28
  t1/2 Ratio: 2.11
[1]; [9]
  AUC(0-inf) Ratio: 0.91
  Cmax Ratio: 1.03
  Tmax Ratio: 1.00
  t1/2 Ratio: 0.59
[1]; rats, midazolam i.v. 5 mg/kg, pretreated with Soybean oil
  t1/2: 0.88 ± 0.28 h

## C=C(C)[C@@H]1CC[C@]2(C(=O)O)CC[C@]3(C)[C@H](CC[C@@H]4[C@@]5(C)CC[C@@H](O)C(C)(C)[C@@H]5CC[C@]43C)[C@@H]12 [epibetulinic acid]
CYP3A; microsomes, pH 7.4
  IC50 at 30 min: 0.64 ± 0.1 µM
[2]
  exposure in rat plasma and rat liver: very low exposure levels
[3]; nominal level 3.28 nmol/L
  Stability, 4 ℃ Refrigerator (3 day, %): 113.34%
  Stability, -20℃ freeze-thaw (3 times, %): 109.83%
  Stability, Room temperature (24 h, %): 104.88%
[3]; nominal level 20.48 nmol/L
  Stability, 4 ℃ Refrigerator (3 day, %): 105.44%
  Stability, -20℃ freeze-thaw (3 times, %): 106.94%
  Stability, Room temperature (24 h, %): 96.59%
[3]; nominal level 128.00 nmol/L
  Stability, 4 ℃ Refrigerator (3 day, %): 107.19%
  Stability, -20℃ freeze-thaw (3 times, %): 110.52%
  Stability, Room temperature (24 h, %): 106.30%
CYP3A4
  IC50: 0.47 ± 0.08 µM

## CC1(C)CC[C@]2(C(=O)O)CC[C@]3(C)C(=CC[C@@H]4[C@@]5(C)C[C@@H](O)[C@H](O)C(C)(C)[C@@H]5CC[C@]43C)[C@@H]2C1 [maslinic acid]
CYP3A; microsomes, pH 7.4
  IC50 at 30 min: 19.4 ± 3.04 µM
[2]
  exposure in rat plasma and rat liver: could not be detected
[3]; nominal level 8.19 nmol/L
  Stability, 4 ℃ Refrigerator (3 day, %): 101.20%
  Stability, -20℃ freeze-thaw (3 times, %): 100.54%
  Stability, Room temperature (24 h, %): 95.84%
[3]; nominal level 51.20 nmol/L
  Stability, 4 ℃ Refrigerator (3 day, %): 103.76%
  Stability, -20℃ freeze-thaw (3 times, %): 100.05%
  Stability, Room temperature (24 h, %): 99.51%
[3]; nominal level 320.00 nmol/L
  Stability, 4 ℃ Refrigerator (3 day, %): 97.98%
  Stability, -20℃ freeze-thaw (3 times, %): 98.47%
  Stability, Room temperature (24 h, %): 96.85%
CYP3A4
  IC50: 3.44 ± 0.77 µM

## CC1(C)CC[C@]2(C(=O)O)CC[C@]3(C)C(=CC[C@@H]4[C@@]5(C)CC[C@H](O)C(C)(C)[C@@H]5CC[C@]43C)[C@@H]2C1 [oleanolic acid]
CYP3A; microsomes, pH 7.4
  IC50 at 30 min: 14.8 ± 2.34 µM
[2]
  exposure in rat plasma and rat liver: very low exposure levels
[3]; nominal level 3.28 nmol/L
  Stability, 4 ℃ Refrigerator (3 day, %): 105.69%
  Stability, -20℃ freeze-thaw (3 times, %): 103.79%
  Stability, Room temperature (24 h, %): 103.28%
[3]; nominal level 20.48 nmol/L
  Stability, 4 ℃ Refrigerator (3 day, %): 102.19%
  Stability, -20℃ freeze-thaw (3 times, %): 105.51%
  Stability, Room temperature (24 h, %): 99.64%
[3]; nominal level 128.00 nmol/L
  Stability, 4 ℃ Refrigerator (3 day, %): 104.96%
  Stability, -20℃ freeze-thaw (3 times, %): 105.16%
  Stability, Room temperature (24 h, %): 99.00%

## C[C@H]1[C@H](C)CC[C@]2(C(=O)O)CC[C@]3(C)C(=CC[C@@H]4[C@@]5(C)C[C@@H](O)[C@H](O)C(C)(C)[C@@H]5CC[C@]43C)[C@H]12 [corosolic acid]
CYP3A; human liver microsomes, pH 7.4, probe midazolam (1′-hydroxylation), midazolam 1′-hydroxylation, HLMs, read-out: IC50
  IC50 at 30 min: 32.2 ± 5.63 µM
[3]; nominal level 8.19 nmol/L
  Stability, 4 ℃ Refrigerator (3 day, %): 105.13%
  Stability, -20℃ freeze-thaw (3 times, %): 104.46%
  Stability, Room temperature (24 h, %): 99.78%
[3]; nominal level 51.20 nmol/L
  Stability, 4 ℃ Refrigerator (3 day, %): 104.14%
  Stability, -20℃ freeze-thaw (3 times, %): 100.45%
  Stability, Room temperature (24 h, %): 99.91%
[3]; nominal level 320.00 nmol/L
  Stability, 4 ℃ Refrigerator (3 day, %): 97.82%
  Stability, -20℃ freeze-thaw (3 times, %): 98.31%
  Stability, Room temperature (24 h, %): 96.69%
CYP3A4
  IC50: 41.9 ± 11.7 µM

## C=C(C)[C@@H]1CC[C@]2(C(=O)O)CC[C@]3(C)[C@H](CC[C@@H]4[C@@]5(C)CC[C@H](O)C(C)(C)[C@@H]5CC[C@]43C)[C@@H]12 [betulinic acid]
CYP3A; microsomes, pH 7.4
  IC50 at 30 min: 7.74 ± 0.95 µM
[2]
  exposure in rat plasma and rat liver: could not be detected
[3]; nominal level 3.28 nmol/L
  Stability, 4 ℃ Refrigerator (3 day, %): 100.20%
  Stability, -20℃ freeze-thaw (3 times, %): 104.81%
  Stability, Room temperature (24 h, %): 98.14%
[3]; nominal level 20.48 nmol/L
  Stability, 4 ℃ Refrigerator (3 day, %): 102.78%
  Stability, -20℃ freeze-thaw (3 times, %): 99.04%
  Stability, Room temperature (24 h, %): 102.89%
[3]; nominal level 128.00 nmol/L
  Stability, 4 ℃ Refrigerator (3 day, %): 102.12%
  Stability, -20℃ freeze-thaw (3 times, %): 110.33%
  Stability, Room temperature (24 h, %): 103.89%
CYP3A4
  IC50: 4.11 ± 0.8 µM

## C=C(C)[C@@H]1CC[C@]2(C(=O)O)CC[C@]3(C)[C@H](CC[C@@H]4[C@@]5(C)CCC(=O)C(C)(C)[C@@H]5CC[C@]43C)[C@@H]12 [betulonic acid]
CYP3A; midazolam 1′-hydroxylation, HLMs
  IC50: 2.51 ± 0.34 µM
CYP3A4; NEN 4-hydroxylation, HLMs
  IC50: 0.96 ± 0.14 µM

## CC1(C)CC[C@]2(C(=O)O)CC[C@]3(C)C(=CC[C@@H]4[C@@]5(C)CCC(=O)C(C)(C)[C@@H]5CC[C@]43C)[C@@H]2C1 [oleanonic acid]
CYP3A; microsomes, pH 7.4
  IC50 at 30 min: 0.99 ± 0.09 µM
[2]; 1 h after single oral dose of Styrax (100 mg/kg)
  local exposure to rat jejunum: 745.69 nM/mg tissue protein
[2]
  exposure in rat plasma and rat liver: very low exposure levels
[3]; nominal level 3.28 nmol/L
  Stability, 4 ℃ Refrigerator (3 day, %): 85.84%
  Stability, -20℃ freeze-thaw (3 times, %): 91.69%
  Stability, Room temperature (24 h, %): 86.92%
[3]; nominal level 20.48 nmol/L
  Stability, 4 ℃ Refrigerator (3 day, %): 103.95%
  Stability, -20℃ freeze-thaw (3 times, %): 109.44%
  Stability, Room temperature (24 h, %): 101.86%
[3]; nominal level 128.00 nmol/L
  Stability, 4 ℃ Refrigerator (3 day, %): 100.64%
  Stability, -20℃ freeze-thaw (3 times, %): 113.69%
  Stability, Room temperature (24 h, %): 98.85%
CYP3A4
  IC50: 0.8 ± 0.06 µM
